Measured values as given in patent US4229435A, “Preparation of blood fraction” (priority 1978, dated 1980).

Target: T1, F VIII (Homo sapiens, UniProt P00451)
T1 construct: from tissue; host or cells: human citrated blood plasma
T1 sequence (P00451 20-1332 limits assumed): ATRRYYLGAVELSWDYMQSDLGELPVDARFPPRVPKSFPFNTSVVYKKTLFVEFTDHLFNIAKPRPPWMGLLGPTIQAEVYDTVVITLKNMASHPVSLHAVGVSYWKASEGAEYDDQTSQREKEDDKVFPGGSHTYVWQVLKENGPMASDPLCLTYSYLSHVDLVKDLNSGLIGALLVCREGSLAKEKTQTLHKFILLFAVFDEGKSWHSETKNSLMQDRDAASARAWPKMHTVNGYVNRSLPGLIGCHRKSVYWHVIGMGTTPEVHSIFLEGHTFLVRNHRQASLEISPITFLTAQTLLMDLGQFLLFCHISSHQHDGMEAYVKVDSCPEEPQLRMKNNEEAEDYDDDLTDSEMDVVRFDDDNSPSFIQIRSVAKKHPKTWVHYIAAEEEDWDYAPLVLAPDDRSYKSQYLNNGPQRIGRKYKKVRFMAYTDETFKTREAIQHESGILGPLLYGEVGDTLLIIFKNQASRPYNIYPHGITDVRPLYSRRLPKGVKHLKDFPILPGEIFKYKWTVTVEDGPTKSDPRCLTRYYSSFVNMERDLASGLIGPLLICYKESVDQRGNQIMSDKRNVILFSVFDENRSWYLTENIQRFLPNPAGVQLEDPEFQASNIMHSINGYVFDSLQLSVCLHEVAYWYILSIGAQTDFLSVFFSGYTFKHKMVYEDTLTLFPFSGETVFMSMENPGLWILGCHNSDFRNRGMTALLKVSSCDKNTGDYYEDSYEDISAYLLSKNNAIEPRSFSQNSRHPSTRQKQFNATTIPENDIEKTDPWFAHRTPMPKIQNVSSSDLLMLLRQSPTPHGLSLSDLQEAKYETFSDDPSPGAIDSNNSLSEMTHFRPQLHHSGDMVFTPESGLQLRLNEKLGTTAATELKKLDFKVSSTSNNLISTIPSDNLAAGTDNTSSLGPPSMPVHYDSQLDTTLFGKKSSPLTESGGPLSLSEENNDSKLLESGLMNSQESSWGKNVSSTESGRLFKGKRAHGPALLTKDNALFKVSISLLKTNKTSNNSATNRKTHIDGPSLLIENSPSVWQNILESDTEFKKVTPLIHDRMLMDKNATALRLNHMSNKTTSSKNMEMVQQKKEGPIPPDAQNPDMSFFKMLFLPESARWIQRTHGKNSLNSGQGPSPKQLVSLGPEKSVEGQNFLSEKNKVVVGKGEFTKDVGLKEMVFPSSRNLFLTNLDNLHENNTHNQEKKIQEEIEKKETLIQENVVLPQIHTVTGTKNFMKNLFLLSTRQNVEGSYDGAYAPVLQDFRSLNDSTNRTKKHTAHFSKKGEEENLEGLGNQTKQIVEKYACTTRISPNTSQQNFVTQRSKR
T1 sequence (P00451 1668-2351 limits assumed): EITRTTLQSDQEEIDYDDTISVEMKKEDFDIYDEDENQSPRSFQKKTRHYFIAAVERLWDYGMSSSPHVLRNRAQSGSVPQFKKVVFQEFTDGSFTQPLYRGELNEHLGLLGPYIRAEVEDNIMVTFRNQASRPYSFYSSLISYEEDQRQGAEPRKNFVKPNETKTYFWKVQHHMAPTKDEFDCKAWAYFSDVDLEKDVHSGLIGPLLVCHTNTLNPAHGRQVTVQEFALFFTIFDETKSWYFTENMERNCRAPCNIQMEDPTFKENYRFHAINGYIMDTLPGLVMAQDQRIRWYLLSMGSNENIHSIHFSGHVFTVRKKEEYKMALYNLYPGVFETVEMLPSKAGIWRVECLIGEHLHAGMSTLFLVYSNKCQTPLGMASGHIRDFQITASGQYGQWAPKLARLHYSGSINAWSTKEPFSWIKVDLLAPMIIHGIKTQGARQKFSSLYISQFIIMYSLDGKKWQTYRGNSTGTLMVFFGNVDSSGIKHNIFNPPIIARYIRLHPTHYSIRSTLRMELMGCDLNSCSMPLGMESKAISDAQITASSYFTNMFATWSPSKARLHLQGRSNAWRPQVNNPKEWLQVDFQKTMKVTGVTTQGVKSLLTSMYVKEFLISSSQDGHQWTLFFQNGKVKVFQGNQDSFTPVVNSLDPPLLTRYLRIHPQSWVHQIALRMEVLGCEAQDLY
Assay: Coagulation factor VIII activity in plasma after reducing agent + iodoacetic acid
Format: biochemical
Conditions: 5 min 37° C., then iodoacetic acid
Experimental: Human blood with anti-coagulating agent (9 parts blood+1 part 3.8% trisodium citrate) is centrifuged and the following tests with plasma were carried out:
The plasma is divided into 8 ml portions, which are preheated at 37° C. for 5 min. DTT is added in different concentrations, see table 1 below, and is incubated for 5 min. at 37° C. Then iodoacetic acid, 3 mol per mol DTT, is added, and incubation takes place for 15 min. at 37° C. The plasma samples are distributed in portions of about 0.2 ml and are immediately frozen at -70° C. Testing of different coagulation factors is made in known manner.
(§1) The plasma is divided into 8 ml portions, which are preheated at 37° C. for 5 min. DTE is added in different concentrations (see table 2), and is incubated for 5 minutes at 37° C. Then, iodoacetic acid (3 mol per mol DTE) is added and incubation is carried out for 15 minutes at 37° C. The plasma samples are distributed in portions of about 0.2 ml and are immediately frozen at -70° C. Testing of different coagulation factors is made in a manner known per se.
as §1, with “minutes. Lipoic acid” for “min. DTE”, “3),” for “2),”, “lipoic acid)” for “DTE)”
as §1, with “minutes. Mercaptoethanol” for “min. DTE”, “4),” for “2),”, “mercaptoethanol)” for “DTE)”
as §1, with “minutes. Potassium borohydride” for “min. DTE”, “5,” for “2),”, “potassium borohydride)” for “DTE)”

[1] = human, 0.1 mg reducing agent/ml plasma (sample C)

SMILES: O[C@H](CS)[C@@H](O)CS [DTE, dithioerythritol]
- activity at 100 µg/mL [1]: 108%
- Coagulation factor F VIII (plasma + 0.2 mg reducing agent): 116 % of control
- Coagulation factor F VIII (plasma + 0.4 mg reducing agent): 93 % of control

SMILES: O[C@H](CS)[C@H](O)CS [DTT, dithiothreitol]
- activity at 100 µg/mL [1]: 107%
- activity at 600 µg/mL (human, 0.6 mg reducing agent/ml plasma): 27%
- activity at 100 µg/mL (human, Table 1 sample D, 0.1 mg DTT/ml plasma): 86%
- Coagulation factor F VIII (plasma + 0.4 mg reducing agent): 52 % of control

SMILES: [BH4-].[K+] [KBH4, potassium borohydride]
- Coagulation factor F VIII (plasma + 0.14 mg reducing agent): 122 % of control
- Coagulation factor F VIII (plasma + 0.28 mg reducing agent): 105 % of control

SMILES: O=C(O)CCCCC1CCSS1 (centres unmarked) [lipoic acid]
- activity at 100 µg/mL [1]: 111%
- Coagulation factor F VIII (plasma + 0.2 mg reducing agent): 98 % of control
- Coagulation factor F VIII (plasma + 0.4 mg reducing agent): 111 % of control

SMILES: OCCS [mercaptoethanol]
- Coagulation factor F VIII (plasma + 0.2 mg reducing agent): 98 % of control
- Coagulation factor F VIII (plasma + 0.4 mg reducing agent): 85 % of control
